Test results published in PubChem BioAssay (NCI).
“And” between values parts separate entries of the source, which are not always exact repeats. Identical values can stand only once.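 Cultured in 96-well plates, cells were exposed to test compound for 48 hours across five concentrations. Abbreviation: GI50, concentration required for 50% inhibition of growth. TGI: total growth inhibition.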

Key:
Test in all cases: inhibition of tumour cell growth, NCI panel, 48 h
SF-268 CNS = tested on: SF-268 CNS
IGROV1 ovarian = tested on: IGROV1 ovarian
HCT-116 colon = tested on: HCT-116 colon
CAKI-1 renal = tested on: CAKI-1 renal
OVCAR-4 ovarian = tested on: OVCAR-4 ovarian
UACC-62 melanoma = tested on: UACC-62 melanoma
ACHN renal = tested on: ACHN renal
NCI-H23 lung = tested on: NCI-H23 lung
SK-MEL-2 melanoma = tested on: SK-MEL-2 melanoma
A498 renal = tested on: A498 renal

| SMILES | GI50 (SF-268 CNS) | TGI (SF-268 CNS) | GI50 (IGROV1 ovarian) | TGI (IGROV1 ovarian) | GI50 (HCT-116 colon) | TGI (HCT-116 colon) | GI50 (CAKI-1 renal) | TGI (CAKI-1 renal) | GI50 (OVCAR-4 ovarian) | TGI (OVCAR-4 ovarian) | GI50 (UACC-62 melanoma) | TGI (UACC-62 melanoma) | GI50 (ACHN renal) | TGI (ACHN renal) | GI50 (NCI-H23 lung) | TGI (NCI-H23 lung) | GI50 (SK-MEL-2 melanoma) | TGI (SK-MEL-2 melanoma) | TGI (A498 renal) | GI50 (A498 renal) |
| --- | --- | --- | --- | --- | --- | --- | --- | --- | --- | --- | --- | --- | --- | --- | --- | --- | --- | --- | --- | --- |
| C=C(CN1CCN(c2ccccn2)CC1)c1ccc(C(=O)Nc2ccccc2N)cc1 | 1.66 µM | 9.22 µM | 1.57 µM | 37.8 µM | 2.5 µM | 32.1 µM | 1.19 µM | 5.03 µM | 6.35 µM | > 50 µM | 1.41 µM | 9.99 µM | 1.5 µM | > 50 µM | 0.939 µM | 2.44 µM | 1.87 µM | > 50 µM | – | – |
| CN1C2C=CC(=O)C1C(C#N)C2 (stereo not given) | – | > 100 µM | – | > 100 µM | – | 54.9 µM and > 100 µM | – | – | – | – | – | > 100 µM | – | > 100 µM | – | 87.9 µM and > 100 µM | 12.5 µM and 88.3 µM | 32.1 µM and > 100 µM | > 100 µM | – |
| CCCCS(=O)(=O)c1cc(Nc2ccc(O)c3c2C(=O)c2ccccc2C3=O)ccc1C | 57.7 µM | > 100 µM | > 100 µM | > 100 µM | > 100 µM | > 100 µM | > 100 µM | > 100 µM | – | – | 2.77 µM | > 100 µM | > 100 µM | > 100 µM | – | – | 26.5 µM | > 100 µM | > 100 µM | > 100 µM |
| CC(C)(O)c1cc(Nc2cc(Oc3cn(C4CC4)nc3C3CCOCC3)ccn2)ccn1 | > 100 µM | > 100 µM | 62.4 µM | > 100 µM | 36.2 µM | > 100 µM | > 100 µM | > 100 µM | > 100 µM | > 100 µM | – | – | > 100 µM | > 100 µM | 34.8 µM | > 100 µM | > 100 µM | > 100 µM | > 100 µM | 63.1 µM |
| COC(=O)CCC(NC(=S)N/N=C(\C)c1cccs1)C(=O)OC (stereo not given) | – | > 100 µM | – | > 100 µM | – | > 100 µM | – | – | – | > 100 µM | – | > 100 µM | – | > 100 µM | – | > 100 µM | – | > 100 µM | > 100 µM | – |
| C[C@]12CCC3c4ccc(O)cc4CCC3C1CC[C@@H]2NC(=O)/C=C/c1ccc(O)c(O)c1 (stereo not given in full) | 11.2 µM | 45.3 µM | 12.1 µM | 32.2 µM | 10.6 µM | 23 µM | 16.4 µM | 48.4 µM | 5.94 µM | 24.7 µM | 11.5 µM | 24.4 µM | 12.4 µM | 25.1 µM | 11.8 µM | 28.5 µM | 20.6 µM | 51.3 µM | – | – |
| Cn1cc(-c2csc(-c3ccc(Cl)cc3)n2)c2cccnc21 | 15.4 µM | 34 µM | 22.3 µM | > 100 µM | 12.8 µM | 25.4 µM | 6.99 µM | 25.6 µM | 21.9 µM | 60.8 µM | 10.5 µM | 29.8 µM | 14.1 µM | 29.2 µM | 13.7 µM | 31 µM | 17.4 µM | 42.5 µM | – | – |
| C=C(CN1CCc2ccccc2C1)c1ccc(CCCC(=O)Nc2ccccc2N)cc1 | > 100 µM | > 100 µM | – | – | 12.8 µM | 33.3 µM | 17.9 µM | 82.5 µM | 14.5 µM | 49.8 µM | 15.1 µM | 30.8 µM | 25.9 µM | > 100 µM | 20.1 µM | 48.6 µM | 14.5 µM | 31.8 µM | 26.1 µM | 12.6 µM |
| OC(Cc1cccc2ccccc12)CN1CCC(c2ccccc2)CC1 (stereo not given) | – | 28.2 µM | – | – | – | 28.7 µM | – | 24.5 µM | – | – | – | 28.9 µM | – | 31.7 µM | – | 30.8 µM | – | – | – | – |
| COC(=O)N[C@@H](C)CNc1nccc(-c2cn(C(C)C)nc2-c2cc(Cl)cc(NS(C)(=O)=O)c2F)n1 | > 100 µM | > 100 µM | 0.678 µM | > 100 µM | 0.662 µM | > 100 µM | 4.95 µM | > 100 µM | > 100 µM | > 100 µM | – | – | 1.03 µM | > 100 µM | > 51.3 µM | > 100 µM | – | – | > 100 µM | 0.336 µM |
| COc1cc(C=NCC(=O)CSC(c2ccccc2)c2ccccc2)ccc1O | 17.2 µM | 40 µM | – | – | 8.69 µM | 21 µM | 16.6 µM | 43.2 µM | 5.32 µM | 23 µM | 13.6 µM | 27.5 µM | 12.5 µM | 31.8 µM | 8 µM | 20.5 µM | 14.9 µM | 28.7 µM | – | – |
| O=C(O)C(Cc1ccccc1)N1C(=O)/C(=C/C(Cl)=C/c2ccc([N+](=O)[O-])cc2)SC1=S (stereo not given) | – | – | – | – | 2.01 µM | 5.47 µM | 2.28 µM | 5.09 µM | 3.21 µM | > 100 µM | 2 µM | 4.85 µM | 1.8 µM | 3.3 µM | 2.13 µM | 4.86 µM | 1.87 µM | 4.5 µM | 3.24 µM | 1.65 µM |
| S=C(Nc1ccc(-c2nc3ccccc3s2)cc1)Nc1ccc(-c2nc3ccccc3s2)cc1 | 23.6 µM | 94.8 µM | 13 µM | 41.7 µM | 16.6 µM | 33.9 µM | 13.5 µM | 48.1 µM | 24.4 µM | 99.4 µM | 15.7 µM | 32 µM | 17.1 µM | 41 µM | 21.1 µM | 44.9 µM | 22.9 µM | 45 µM | – | – |
| CN(C)C(=S)/N=c1\ssc(=Nc2ccccc2)n1-c1ccccc1 | – | 98.2 µM | – | > 100 µM | – | – | – | 75.6 µM | – | 18.9 µM | – | – | – | > 100 µM | – | > 100 µM | – | > 100 µM | > 100 µM | – |
| CCCCC[C@H]1C/C=C2/C(=O)C=C[C@@H]2C/C=C\CCCC(=O)O1 | 0.19 µM | 5.94 µM | 0.209 µM | 1.43 µM | 0.0905 µM | 0.232 µM | – | – | 0.189 µM | 5.94 µM | – | – | 0.0987 µM | 0.202 µM | 0.16 µM | 0.713 µM | 0.114 µM | 0.296 µM | 0.878 µM | 0.193 µM |
